Assay [1] concerns head-ligated B. dorsalis larvae. As to the kind of experiment: Rescue of larval-pupal transition by peptide injection in head-ligated larvae. The class given is in vivo, Bactrocera dorsalis. Particulars: 0.3 pmol in 300 nL, 24 h post-injection; for rescue of pupariation in head-ligated larvae: in words. As for the experimental part: The peptides of Crz and ETH of B. dorsalis were synthesized by Genescript (Nanjing, China), and the adipokinetic hormone (AKH) peptide of Bombyx mori (BmAKH) was a gift from Dr. Naiming Zhou (Zhejing University, China; Yang et al., [2013]). The amino acid (aa) sequences for Crz, ETH and AKH were added in Table 1. Plasmids were prepared using the MIDIprep kit as purchased from Qiagen (Valencia, CA). The reagents for cell culture and GPCR assay were purchased from Gibco cell culture at Life Technologies (Grand Island, NY), including fetal bovine serum, DMEM/F12 medium, fungizone, penicillin/streptomycin, and coelenterazine. The transfection reagent (TransIt) was purchased from Mirus Bio (Madison, WI).
The experimental setup with head-ligated 2-day-old 3rd-instar larvae was based on a previous study (Kim et al., [2004]). […] Upon head-ligation, a series of larvae was injected with Crz (0.3 pmol in 300 nL) or ETH (0.3 pmol in 300 nL). Upon injection larvae were kept on an artificial diet as described above, and we scored pupal development at 24 h post-injection. Per treatment, we used 20 larvae and three biological replicates were conducted. Typical phenotype effects were captured with a Leica M205A stereomicroscope with a camera (Leica Microsystems, Wetzlar, Germany).

Another assay concerns DmCrzR. The settings on record: ref Cazzamali et al., [2002], Park et al., [2002b], cited from earlier work. The source says: (§1) The CrzR is a member of the GPCR family having seven TM domains. Since the first CrzR was identified in Drosophila, homologous receptors have been predicted in several genome databases (Sha et al., [2012]).
Another assay has as its system BdCrzR. As to the kind of experiment: Ca2+ mobilization luminescence (aequorin) assay in BdCrzR-expressing CHO cells. The class given is cell-based, Bactrocera dorsalis. The settings on record: for Ca2+ response of BdCrzR-expressing CHO cells: CHO cells with aequorin and Gα16, 10-fold serial dilution of peptide. As for the experimental part:
The ORF for BdCrzR was inserted into the expression vector pcDNA3.1 (+). The correct clone of pcDNA3.1-BdCrzR was confirmed by sequencing (Invitrogen). Chinese Hamster Ovary (CHO) cells, supplemented with aequorin, and Gα16 subunit, were employed for the heterologous expression. The methods for the transfection and the Ca^2+ mobilization assay were performed as previously described (Jiang et al., [2014]). Briefly, cells were transfected with the pcDNA3.1(+)-BdCrzR using TransIT-LT1 transfection reagent (Mirus Bio). At 30 h after the transfection, the cells were collected and incubated with the coelenterazine (Invitrogen) for 2.5 h prior to the functional assay. The cells transfected with the empty pcDNA3.1 vector, were used as a negative control.
The luminescence assay was performed by measuring the intracellular Ca^2+ mobilization of the transfected CHO cells. A 10-fold serial dilution of the peptides (BdCrz and BmAKH) was applied to the cells. The luminescence caused by the intracellular calcium mobilization was measured within 20 s in every half-second intervals by a TriStar^2 LB 942 Multimode Reader (Berthold Technologies, Bad Wildbad, Germany; Jiang et al., [2013], [2014]). The lowest concentration of BdCrz ligand showing the maximum activation of the receptor, was selected for luminescence normalization. Based on that, a concentration-response curve was calculated for BdCrz by logistic fitting in Origin 8.6 (OriginLab Corporation, Northampton, MA). All experiments were conducted with three biological replicates.

The subject of a further assay is Schistocerca americana. The settings on record: ref Veenstra, [1991]; cited from earlier work. The source says: (§2) Neuropeptides play a central role in regulating numerous vital physiological systems and behavioral events in diverse insects. The multiple functions of insect neuropeptides make them a prime practical potential target in the development of novel insect control agents (Boonen et al., [2009]).

The subject of a further assay is MsCrzR. The settings on record: ref Kim et al., [2004], cited from earlier work.
Text: as §1

The subject of the next assay is Bombyx mori larvae. The settings on record: injection into larvae; ref Tanaka et al., [2002]; cited from earlier work. The source says: Crz is highly conserved with respect to spatial expression pattern, but no clear pattern of function has emerged.
A further assay has as its system Periplaneta americana. The settings on record: ref Veenstra, [1989]; cited from earlier work.
Text: as §2

We go through five substances from article PMC5309247, “A Role of Corazonin Receptor in Larval-Pupal Transition and Pupariation in the Oriental Fruit Fly Bactrocera dorsalis (Hendel) (Diptera: Tephritidae)” (Frontiers in Physiology, 2017).

Read-outs that look alike come from different tables or passages of the source.

Take “pAsn-Glu-Ser-Pro-Gly-Phe-Phe-Leu-Lys-Ile-Thr-Lys-Asn-Val-Pro-Arg-Leu-NH2 [BdETH, ecdysis-triggering hormone (ETH) of B. dorsalis, synthesized by Genescript, reference compound]”: in assay [1], the “rescue of pupariation in head-ligated larvae” value is recorded as “the same result was also observed”.

“DmCrz: Corazonin of Drosophila melanogaster (NP_524350.1) (QTFQYSRGWTN; Corazonin; UniProt Q26377 20-30, looked up)”: the results for the concentration giving a half-maximal response (EC50) with DmCrzR (DmCrzR-transfected CHO cells) and in the assay with DmCrzR (Xenopus oocyte cells) were 18 nM and 1 nM, respectively.

Take “pCys-Glu-Leu-Thr-Phe-Ser-Pro-Asp-Thr-NH2 [BmAKH, adipokinetic hormone (AKH) peptide of Bombyx mori, reference compound]”: the entries for the “Ca2+ response of BdCrzR-expressing CHO cells” value in the assay with BdCrzR and with BdCrzR (listed as AKH) were “no responses” and “did not respond”, respectively.

As for “pGln-Thr-Phe-Gln-Tyr-Ser-His-Gly-Trp-Thr-Asn-NH2 [[His^7]-Crz]”, the dark-inducing activity result with Schistocerca americana is “dark-inducing peptide”.

Regarding “pGln-Thr-Phe-Gln-Tyr-Ser-His-Gly-Trp-Thr-Ser-NH2 [BdCrz, mature corazonin of Bactrocera dorsalis, …amide, synthesized by Genescript]”, the EC50 (in general, the concentration giving half of the maximal effect) with BdCrzR (CHO cells with aequorin and Gα16, transiently expressing BdCrzR, Ca2+ luminescence within 20 s, logistic fit, three independent measurements, each three replicates) was 52.5 nM; in the assay on MsCrzR (CHO), 0.2 nM; with MsCrzR (Xenopus oocyte-expression system), 0.075 nM. Besides, the “Ca2+ response of BdCrzR-expressing CHO cells” value in the assay with BdCrzR is listed as “concentration-dependent Ca^2+ responses”. The “head-ligated larvae that made the transition from the larval to the pupal stage” value in assay [1] (20 larvae per treatment, three biological replicates) is reported as 97%. Further, in assay [1], the “rescue of pupariation in head-ligated larvae” value is reported as “could rescue the effects”. Also, the pupal development result in the assay on Bombyx mori larvae was “prolonged pupal development”. Also, the silk spinning rate entry in the assay on Bombyx mori larvae is recorded as “reduced the silk spinning rate”. The cardioacceleratory activity result in the assay on Periplaneta americana was “cardioacceleratory peptide”.
